Measured values as given in patent US12565511B2, “SOS1 inhibitor containing phosphorus” (Chia Tai Tianqing Pharmaceutical Group Co., Ltd., priority 2020, dated 2026).
pIC50: −log10 of the molar value.

Columns and labels:
KRAS-G12C/SOS1 = target: T1, KRAS-G12C/SOS1 (Homo sapiens, UniProt Q07889); experiment: biochemical
T1 sequence (Q07889 564-1049): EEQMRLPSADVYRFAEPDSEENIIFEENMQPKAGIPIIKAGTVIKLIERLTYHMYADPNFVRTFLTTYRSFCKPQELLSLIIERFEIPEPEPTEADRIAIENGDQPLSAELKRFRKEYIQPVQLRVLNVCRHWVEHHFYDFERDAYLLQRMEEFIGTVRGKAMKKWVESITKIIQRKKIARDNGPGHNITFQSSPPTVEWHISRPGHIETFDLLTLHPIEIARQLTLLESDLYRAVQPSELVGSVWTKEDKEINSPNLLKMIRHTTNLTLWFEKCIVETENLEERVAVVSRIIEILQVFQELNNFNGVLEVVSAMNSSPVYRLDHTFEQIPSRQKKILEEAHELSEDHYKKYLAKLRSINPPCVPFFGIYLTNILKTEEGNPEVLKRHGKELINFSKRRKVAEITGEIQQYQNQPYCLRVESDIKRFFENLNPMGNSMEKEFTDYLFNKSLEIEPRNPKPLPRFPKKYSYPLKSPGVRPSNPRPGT

K562 cells = experiment: Assay for proliferation inhibitory activity of K562 cells; assay type: cell-based; settings: Homo sapiens, 72 h, CCK-8, read-out: K562 cell proliferation inhibition IC50
Procedure: Test Example 4 Assay for Proliferation Inhibitory Activity of K562 Cells
The K562 cell line can be purchased from the American Type Culture Collection (ATCC).
The K562 cells in a good growth state were added to a centrifuge tube with the cell density adjusted to 3×10^4/mL, and seeded on a 96-well plate (100 μL/well). The cells were cultured overnight in a cell incubator, the compound was loaded using a nanoliter pipettor to allow the final compound concentration to be 10000 nM to 4.6 nM, 2 replicate wells were set and control was set.

SOS1cat / KRAS G12C = target: T2, SOS1cat / KRAS G12C (Homo sapiens, UniProt Q07889); experiment: Guanine nucleotide exchange test (HTRF); assay type: biochemical; settings: SOS1cat-mediated loading of EDA-GTP-DY-647P1 on His-KRAS G12C, 20° C.; read-out: Nucleotide conversion of HTRF IC50
T2 sequence (Q07889 564-1049): T1 sequence (Q07889 564-1049)
Procedure: Test Example 2 Guanine Nucleotide Exchange Test
This test quantitatively investigates the ability of SOS to mediate KRAS activation. KRAS G12C with a His tag was added to the system, anti-His antibody labeled with lanthanide Eu was combined with the system, then auxiliary protein SOS1cat and GTP analogue EDA-GTP-DY-647P1 with fluorophore were added thereto, the GTP analogue with fluorophore was loaded on KRAS G12C with the assistance of the auxiliary protein, and then energy resonance transfer occurred between Anti-6HS-Cryptate (FRET donor) and EDA-GTP-DY-647P1 (FRET acceptor).
However, after pretreatment with SOS1 inhibitor compounds, the ability of SOS1 to bind and mediate KRAS activation was weakened, and the ability of FRET between donor and acceptor was weakened.
Test buffer was prepared with the following components: HEPES pH 7.4: 20 mM; NaCl: 150 mM; MgCl2: 0.5 mM; DTT: 2 mM; BSA: 0.05%; and Igepal: 0.0025%.
KRAS G12C working solution, SOS1cat working solution and blank control solution were prepared with the test buffers; wherein the KRAS G12C working solution contained 100 nM His-KRAS G12C and 2 nM […]; the SOS1cat working solution contained 20 nM SOS1cat and 200 nM EDA-GTP-DY-647P1; and the blank control solution contained 100 nM EDA-GTP-DY-647P1.
The whole test procedures were completed at 20° C.

SMILES	pIC50 (KRAS-G12C/SOS1)	pIC50 (K562 cells)	pIC50 (SOS1cat / KRAS G12C)
Cc1nc(N[C@H](C)c2cccc(C(F)(F)F)c2F)c2cc(P3(=O)CCN(S(C)(=O)=O)CC3)ncc2n1 [Example 19]	7.39	6.69	
Cc1nc(N[C@H](C)c2cccc3c2OCC3(F)F)c2cc(P3(=O)CCN(S(C)(=O)=O)CC3)ncc2n1 [Example 22]	7.20	6.08	
Cc1nc(N[C@H](C)c2cccc(C(C)(F)F)c2F)c2cc(P3(=O)CCN(S(C)(=O)=O)CC3)ncc2n1 [Example 23]		6.93	6.55
C[C@@H](Nc1nc(CF)nc2cnc(P3(=O)CCN(S(C)(=O)=O)CC3)cc12)c1cccc(C(F)(F)F)c1F [Example 24]		6.75	
[2H]C(C)(Nc1nc(C)nc2cnc(P3(=O)CCN(S(C)(=O)=O)CC3)cc12)c1cccc(C(F)(F)F)c1F (stereo not drawn) [Example 25]	7.07	6.61	
Cc1nc(N[C@H](CF)c2cccc(C(F)(F)F)c2C)c2cc(P3(=O)CCN(S(C)(=O)=O)CC3)ccc2n1 [Example 26]	6.99		
COc1cc2ncnc(N[C@H](C)c3cccc(C(F)F)c3F)c2cc1P1(=O)CCN(C(C)=O)CC1 [Example 28]	7.30	6.62	
COc1cc2ncnc(N[C@H](C)c3cccc(C(F)F)c3F)c2cc1P1(=O)CCN(S(C)(=O)=O)CC1 [Example 29]	7.20	6.49	
COc1cc2nc(CF)nc(N[C@H](C)c3cccc(C(F)F)c3F)c2cc1P1(=O)CCN(C(C)=O)CC1 [Example 30]	7.17	6.52	
CC(=O)N1CCP(=O)(c2ccc3nc(CF)nc(N[C@H](C)c4cccc(C(F)F)c4F)c3c2)CC1 [Example 31]	6.89	6.29	
CC(=O)N1CCP(=O)(c2cc3c(N[C@H](C)c4cccc(C(F)F)c4F)nc(CF)nc3cc2F)CC1 [Example 32]	7.05	6.81	
CC(=O)N1CCP(=O)(c2ccc3nc(Cl)nc(N[C@H](C)c4cccc(C(F)F)c4F)c3c2)CC1 [Example 33]	7.19	6.60	
CCP(=O)(CC)c1cc2c(N[C@H](C)c3cccc(C(F)F)c3F)nc(C)nc2cc1OC [Example 34]	6.21		
Cc1nc(N[C@H](C)c2cccc(C(F)F)c2F)c2cc(P3(=O)CCOCC3)ncc2n1 [Example 35]	6.81	6.24	
Cc1nc(N[C@H](C)c2cccc(C(F)F)c2F)c2cc(P3(=O)CCOCC3)ccc2n1 [Example 36]	7.03	6.46	
Cc1nc(N[C@H](C)c2cccc(C(F)(F)F)c2F)c2cc(P3(=O)CCOCC3)ccc2n1 [Example 37]	7.01	6.44	
Cc1nc(N[C@H](C)c2cccc(C(F)F)c2F)c2cc(P3(=O)CCOCC3)c(F)cc2n1 [Example 38]	6.94	6.32	
Cc1nc(N[C@H](C)c2cccc(C(F)F)c2F)c2cc(P3(=O)CCOCC3)cc(F)c2n1 [Example 39]	6.99	6.25	
Cc1nc(N[C@H](C)c2cccc(C(F)(F)F)c2C)c2cc(P3(=O)CCOCC3)c(=O)n(C)c2n1 [Example 40]	6.75	6.29	
Cc1nc(N[C@H](C)c2cccc(C(F)(F)F)c2F)c2cc(P3(=O)CCOCC3)nc(C#N)c2n1 [Example 41]	6.74	6.24	
Cc1nc(N[C@H](C)c2cc(N)cc(C(F)(F)F)c2)c2cc(P(C)(C)=O)c(O)cc2n1 [Example 44]			6.14
Cc1nc(N[C@H](C)c2cc(N)cc(C(F)(F)F)c2)c2cc(P(C)(C)=O)c(OC(F)F)cc2n1 [Example 45]		5.97	6.16

SMILES	pIC50 (KRAS-G12C/SOS1)	pIC50 (K562 cells)	pIC50 (SOS1cat / KRAS G12C)
Cc1nc(N[C@H](C)c2cc(N)cc(C(F)(F)F)c2)c2cc(P(C)(C)=O)c(OCF)cc2n1 [Example 46]		6.31	6.30
[2H]C([2H])([2H])Oc1cc2nc(C)nc(N[C@H](C)c3cc(N)cc(C(F)(F)F)c3)c2cc1P(C)(C)=O [Example 47]		6.36	6.24
COCCN1CCP(=O)(c2cc3c(N[C@H](C)c4cccc(C(F)(F)F)c4)nc(C)nc3cn2)CC1 [Example 48]		5.80	6.05
Cc1nc(N[C@H](C)c2cccc(C(F)(F)F)c2)c2cc(P3(=O)CCN(C)CC3)ncc2n1 [Example 49]		5.67	5.83
Cc1nc(N[C@H](C)c2cccc(C(C)(F)F)c2F)c2cc(P3(=O)CCN(CC4CC4)CC3)ncc2n1 [Example 50]		6.48	6.34
Cc1nc(N[C@H](C)c2cccc(C(F)F)c2F)c2cc(P3(=O)CCN(C4COC4)CC3)ncc2n1 [Example 51]	7.00	6.55	
Cc1nc(N[C@H](C)c2cccc(C(C)(F)F)c2F)c2cc(P3(=O)CCN(C(=O)C4CCC4)CC3)ncc2n1 [Example 52]		7.02	6.34
COC(=O)N1CCP(=O)(c2cc3c(N[C@H](C)c4cccc(C(F)F)c4F)nc(C)nc3cn2)CC1 [Example 53]		7.03	6.30
CNCc1ccccc1-c1csc([C@@H](C)Nc2nc(C)nc3cnc(P4(=O)CCN(C(=O)C5CC5)CC4)cc23)c1 [Example 54]		7.08	6.31
Cc1nc(N[C@H](C)c2cccc(C(F)F)c2F)c2cc(P3(=O)CCN(C(=O)N(C)C)CC3)ncc2n1 [Example 55]	7.06	6.55	
Cc1nc(N[C@H](C)c2cccc(C(F)F)c2F)c2cc(P3(=O)CCN(CC#N)CC3)ccc2n1 [Example 56]	7.06	6.29	
Cc1nc(N[C@H](C)c2cccc(C(F)F)c2F)c2cc(P3(=O)CCN(CC(=O)N(C)C)CC3)ccc2n1 [Example 57]	6.69	5.66	
Cc1nc(N[C@H](C)c2cccc3c(F)coc23)c2cc(P3(=O)CCN(S(C)(=O)=O)CC3)ccc2n1 [Example 61]	7.20	6.38	
Cc1nc(N[C@H](C)c2cccc(C(F)(F)F)c2C)c2cc(P3(=O)CCN(S(C)(=O)=O)CC3)ccc2n1 [Example 62]	7.35	6.81	
COc1cc2nc(C)nc(N[C@H](C)c3cccc(C(F)F)c3F)c2cc1P1(=O)CCN(S(C)(=O)=O)CC1 [Example 63]	7.42	6.86	
C[C@@H](Nc1ncnc2cnc(P3(=O)CCN(S(C)(=O)=O)CC3)cc12)c1cccc(C(C)(F)F)c1F [Example 64]	7.19	6.55	
COc1cc2nc(C)nc(N[C@H](C)c3cccc(C(F)F)c3C)c2cc1P1(=O)CCOCC1 [Example 66]	7.10	6.57	
COc1cc2nc(C)nc(N[C@H](C)c3cccc(C(F)(F)F)c3C)c2cc1P1(=O)CCOCC1 [Example 67]	7.15	6.58	
COc1cc2nc(C)nc(N[C@H](C)c3cccc(C(F)(F)F)c3F)c2cc1P1(=O)CCOCC1 [Example 68]	7.05	6.14	
COc1cc2nc(C)nc(N[C@H](C)c3cccc(C(C)(F)F)c3F)c2cc1P1(=O)CCOCC1 [Example 69]	7.31	6.51	
COc1cc2nc(C)nc(N[C@H](C)c3cccc(C(F)(F)CO)c3)c2cc1P1(=O)CCOCC1 [Example 70]	7.36	6.59	
COc1cc2nc(C)nc(N[C@H](C)c3cccc(C(F)(F)C(C)(C)O)c3)c2cc1P1(=O)CCOCC1 [Example 71]	7.46	6.86	
